Reference: patent US11259522B2, “Control of resistant pests” (priority 2017, dated 2022)
Values after ≈ are worked out from the molar mass of the structure shown.

Assays:
Format in all cases: in vivo
[1] = system: Rhipicephalus microplus larvae, multi-resistant Tiaro reference strain; experiment: Larval packet test (LPT), cattle tick larvae, multi-resistant strain; conditions: for LC50 (ppm) / LC99 (ppm): Tiaro, Probit analysis
Protocol: Filter papers (75 mm×85 mm Whatman® No. 541), with grid patterns, were impregnated on ½ of the paper with 225 μL of each solution using a micro-pipette and immediately folded in half, enveloped in polyethylene plastic and sealed with 3 bulldog clips. The impregnated papers were kept at room temperature on aluminium trays for a minimum of 60 minutes to allow for dispersal across the grid pattern of the paper prior to aliquoting of larvae. The packets were prepared in duplicate for each concentration, including the negative control.
Aliquots of approximately 100 larvae were placed into each packet using plastic disposable forceps and the packets resealed and incubated and 27° C. and 85% relative humidity (RH).
After 24 hours, the larval packets were opened and the numbers of dead and live larvae were counted under a magnification lamp. Percentage mortality was calculated and, where applicable, corrected using Abbott's Formula (Abbott, 1925, J. Economic Entomology, 18:256-257): […]
LC50 and LC99 values were determined by Probit mortality vs log concentration analysis. Probit values were derived from “Transformation of Percentages to Probit's Tables” published by Fisher R. A. and Yates F. (1938).
The LPT Assay of Example 1 was repeated using a narrow range of concentrations, 1 in 2 series, of flavesone to determine LC50 and LC99 values against the susceptible NRFS and the multi-resistant Tiaro reference strain.
The Tiaro strain of R. microplus comprises of about 30% fluazuron, 60.6% cypermethrin (SP), 57.6% flumethrin (SP), 16.2% amitraz (amidine), 11.3% DDT, 9.3% chlorpyrifos (OP) and 2.4% dieldrin resistance [2014 acaricide resistance profiling].
The stock solution of flavesone (100,000 ppm) was diluted 1 in 10 with olive oil (1 mL to 9 mL diluent) to give 10,000 ppm, which was then further diluted 1 in 2 in series (5 mL to 5 mL diluent) to give 5,000 ppm, 2,500 ppm, 1,250 ppm, 625 ppm, 312.5 ppm and 156.25 ppm concentrations.
For the preparation of the positive control, cypermethrin, a stock solution of a concentration of 10,000 ppm was prepared in 2:1 trichloroethylene (TCE)/olive oil as the solvent ([…] cypermethrin, 94.8% purity, to 10 mL solvent) and then further diluted 1 in 2 in series (5 mL to 5 mL solvent) to also give 5,000 ppm, 2,500 ppm, 1,250 ppm, 625 ppm, 312.5 ppm and 156.25 ppm.
The flavesone papers were prepared as in Example 1.
The cypermethrin papers were impregnated with 670 μL of each solution using a micro-pipette and hung on a rack in a fume-hood to allow papers to dry (evaporation of TCE) for a minimum of 60 minutes. The papers were then folded in half and sealed with three bulldog clips, placed on aluminium trays prior to aliquoting the larvae. All packets were prepared in duplicate.
A dose-response relationship was determined at 24 hours contact exposure.
Concentrations of 1,250 ppm, 625 ppm and 312.5 ppm flavesone concentrations prepared for Example 3 were used on the same day of preparation. Duplicate papers were prepared for both the NRFS and Tiaro strains (including negative controls) as described in Example 2.
Mortality was assessed at 48 hours and LC50 and LC99 values were determined by Probit mortality vs log concentration analysis.

[2] = system: Halotydeus destructor resistant population (synthetic pyrethroid resistance); experiment: Coated plastic vial bioassay, redlegged earth mite, resistant population
Protocol: The test compositions included 0.1% Tween 20 non-ionic surfactant to aid the spread of insecticides when coating plastic vials. This concentration of Tween 20 has been previously shown to have no toxic effect on H. destructor. For each insecticide concentration tested, 3, 10, 30, 100, 300, 1000, 3000 and 10000 mg a.i./L (ppm), approximately 10 mL of solution was poured into a 15 mL plastic vial and swirled to ensure a complete coating, with excess liquid removed. Eight vials were coated per concentration and were left to dry overnight. Control vials were treated in the same way but with water used in place of test composition.
Eight susceptible H. destructor mites were then placed into each vial along with a leaf of common vetch (Vicia sativa). The leaf was added to provide food and increase humidity. Vials were then sealed with a lid and placed at 18° C. After 4, 6, 8 and 24 hours of exposure, the mites were scored as alive (moving freely), incapacitated (inhibited movement), or dead (no movement over a 5 second period).
The resistant population of H. destructor was collected from a lucerne paddock in the Upper South-East district of South Australia, where resistance to synthetic pyrethroids was confirmed in late 2016.
The data produced in the assays were assessed for concentrations that caused 50, 90 and 99% mortality (lethal concentration, LC), together with 95% confidence intervals (CIs) and were estimated from observations of mortality after 24 hours exposure using a binomial logistic regression (Robertson & Preisler, 1992, Pesticide Bioassays with Arthropods. CRC: Boca Raton; Venables & Ripley, 2002, Modern Applied Statistics with S. Springer: New York). Population differences were tested by comparing the change in model deviance with and without the population factor (different regression intercepts for each population). Differences in regression slopes between populations were tested by comparing the change in model deviance with and without the population×dose interaction term. The resistance ratio of the insecticide-resistant population was estimated as the ratio of its LC50 to that of the susceptible population. All analyses were performed using R 3.3. (R Core Team 2017, R: A language and environment for statistical computing. R Foundation for Statistical Computing, Vienna, Austria. http://www.R-project.org).

[3] = system: Sitophilus oryzae susceptible strain LS2; experiment: Grain protectant bioassay on treated wheat, S. oryzae susceptible; conditions: for Progeny reduction (%): vs untreated control
[4] = system: Sitophilus oryzae strain QSO393 (resistant to fenitrothion); experiment: Grain protectant bioassay on treated wheat, S. oryzae resistant; conditions: for Progeny reduction (%): vs untreated control
[5] = Rhipicephalus microplus, Example 2, 24 hours
[6] = Rhipicephalus microplus, Example 4, 48 hours
[7] = Resistant population, 24 hours exposure
[8] = Sitophilus oryzae, 336 h, 25 mg/kg, 2 weeks, mean ± SE, read-out: Adult mortality (%)
[9] = Sitophilus oryzae, 336 h, 60 mg/kg, 2 weeks, mean ± SE, read-out: Adult mortality (%)

`CC(C)C(=O)C1C(=O)C(C)(C)C(=O)C(C)(C)C1=O` [Flavesone, 1-isobutyroyl-3,3,5,5-tetramethylcyclohexane-2,4,6-trione] was tested, and the “cross-resistance, comparing LC50 and LC99 data between NRFS and Tiaro strains” value ([1]; Example 2, 24 hours) was “no evidence of cross-resistance”, the “LC50 (ppm)” value ([1]; Example 2, 24 hours) was 647 ppm and the “LC99 (ppm)” value ([1]; Example 2, 24 hours) was 1039 ppm. The “LC50 (ppm)” value ([1]; Example 4, 48 hours) was 521 ppm, the “LC99 (ppm)” value ([1]; Example 4, 48 hours) was 887 ppm and the mortality at 2.5 ppm ([1]; Rhipicephalus microplus, Example 2, 2.500 ppm, 24 hours) was 100%. The mortality at 156.25 ppm ([1]; Rhipicephalus microplus, Example 2, 156.25 ppm, 24 hours) was 0%, the mortality at 312.5 ppm [1, 5] was 0.13% and the mortality at 625 ppm [1, 5] was 12.8%. The mortality at 1250 ppm ([1]; Rhipicephalus microplus, Example 2, 1,250 ppm, 24 hours) was 100%, the mortality at 5000 ppm ([1]; Rhipicephalus microplus, Example 2, 5,000 ppm, 24 hours) was 100% and the mortality at 10000 ppm ([1]; Rhipicephalus microplus, Example 2, 10,000 ppm, 24 hours) was 100%. It also gave a mortality at 312.5 ppm [1, 6] of 0.97%, a mortality at 625 ppm [1, 6] of 84.1% and a mortality at 1250 ppm ([1]; Rhipicephalus microplus, Example 4, 1250 ppm, 48 hours) of 100%. For the same molecule, the LC50 ([2]; Halotydeus destructor, 24 h, Resistant population, 24 hours exposure, read-out: LC50 (mg a.i./L)) was 34.2 µg/mL (≈ 136 µM), the “LC50 (mg a.i./L)” value [2, 7] was 34.22 mg a.i./L and the “LC90 (mg a.i./L)” value [2, 7] was 117.89 mg a.i./L. The “LC99 (mg a.i./L)” value [2, 7] was 454.76 mg a.i./L, the “concentration causing 50% mortality” value ([2]; both susceptible and insecticide-resistant populations, 24 hours) was 34−40 mg a.i./L and the Live adult progeny ([3]; 25 mg/kg, mean ± SE) was 735.3 ± 60.6. The Live adult progeny ([3]; 60 mg/kg, mean ± SE) was 355.3 ± 64.7, the “Progeny reduction (%)” value ([3]; 60 mg/kg) was 50.3% and the “Progeny reduction (%)” value ([3]; 60 mg/kg, listed as flavesone) was 50%. It also gave a mortality at 25 mg/kg [3, 8] of 1.3 ± 0.7%, a mortality at 60 mg/kg [3, 9] of 4 ± 1.2% and a Live adult progeny ([4]; 25 mg/kg, mean ± SE) of 572.7 ± 100.9. The “Progeny reduction (%)” value ([4]; 25 mg/kg) was 6.1%, the Live adult progeny ([4]; 60 mg/kg, mean ± SE) was 430.0 ± 51.0 and the “Progeny reduction (%)” value ([4]; 60 mg/kg) was 29.5%. For the same molecule, the “Progeny reduction (%)” value ([4]; 60 mg/kg, listed as flavesone) was 29%, the mortality at 25 mg/kg [4, 8] was 0.7 ± 0.7% and the mortality at 60 mg/kg [4, 9] was 0.7 ± 0.7%.
